What was measured:
[1] = xn = mol fraction of the nth substance listed; conditions: Ring tensiometer
[2] = Ring tensiometer

CCO [ethanol] + OCCO
[1], x1 = 1
Conditions | surface tension liquid-gas [mN/m]
293.15 K | 22.3
298.15 K | 21.8
303.15 K | 21.4
308.15 K | 21.1
313.15 K | 20.8
318.15 K | 20.5
323.15 K | 20

CCO [ethanol]
[2]
Conditions | surface tension liquid-gas [mN/m]
293.15 K | 22.3
298.15 K | 21.8
303.15 K | 21.4
308.15 K | 21.1
313.15 K | 20.8
318.15 K | 20.5
323.15 K | 20

OCCO [1,2-ethanediol] + CCO
surface tension liquid-gas [mN/m], [1]
Conditions | 293.15 K | 298.15 K | 303.15 K | 308.15 K | 313.15 K | 318.15 K | 323.15 K
x2 = 0 | 48.9 | 48.6 | 48.1 | 47.5 | 47.1 | 46.4 | 45.9
x2 = 0.1 | 42 | 41.8 | 41.4 | 41.2 | 41 | 40.6 | 39.8
x2 = 0.3 | 32.9 | 32.7 | 32.2 | 31.6 | 31.1 | 30.8 | 30.7
x2 = 0.5 | 28.5 | 28.3 | 27.8 | 27.4 | 27 | 26.7 | 26.5
x2 = 0.6 | 26.9 | 26.4 | 26.1 | 25.8 | 25.4 | 25 | 24.8
x2 = 0.7 | 25 | 24.9 | 24.7 | 24.4 | 24 | 23.6 | 23.2
x2 = 0.9 | 23.1 | 22.68 | 22.33 | 22.05 | 21.8 | 21.55 | 21.1

OCCO [1,2-ethanediol]
[2]
Conditions | surface tension liquid-gas [mN/m]
293.15 K | 48.9
298.15 K | 48.6
303.15 K | 48.1
308.15 K | 47.5
313.15 K | 47.1
318.15 K | 46.4
323.15 K | 45.9

From the NIST ThermoML archive (doi:10.1021/je025639s)
